# Literature values in publication PMC3532212 (PLoS ONE, 2012).
# What was measured:
# Wistar rats = tested on: Wistar rats; set-up: method as in PMID 17006328; conditions: cited from earlier work
# disease-relevant model = tested on: disease-relevant model; set-up: method as in PMID 15642767; conditions: cited from earlier work
# anesthetized guinea pigs = tested on: anesthetized guinea pigs; set-up: method as in PMID 15642767; conditions: i.v. bolus, highest tested dose 0.03 mg/kg/d; cited from earlier work
# mice = tested on: mice; set-up: method as in PMID 14747617; conditions: wild type mice; cited from earlier work
# S1P1 receptor = tested on: S1P1 receptor; set-up: method as in PMID 15975516; conditions: cited from earlier work
# [1] = tested on: FTY720-induced bradycardia; set-up: method as in PMID 20097776; conditions: in vivo; cited from earlier work
compound,measurement,setting,value
NC(CO)(CO)CCc1ccc(Sc2cccc(OCc3ccccc3)c2)cc1Cl [KRP-203],effect on heart rate,Wistar rats; 0.03 mg/kg,no effect on heart rate
same,"acute bradycardia, heart rate below baseline",Wistar rats; 0.1 and 0.3 mg/kg,~150 beats/min
same,efficacious dose in a disease-relevant model,disease-relevant model,0.1 to 1.0 mg/kg/day
same,effect on heart rate,anesthetized guinea pigs,no effect on heart rate
"CCCCCCCCCCCCC/C=C/[C@@H](O)[C@@H](N)COP(=O)(O)O [S1P, Sphingosine-1-phospate]",effect on heart rate,mice,reductions in heart rate
FC(F)(F)c1cccc(-c2noc(-c3cc(-c4ccccc4)c(C(F)(F)F)s3)n2)c1 [SEW2871],S1P1 receptor internalization,S1P1 receptor,elicit S1P1 receptor internalization
CC(C)(C)C(=O)C(=Nc1ccc(Cl)cc1)NNc1ccc(Cl)cc1 [TY-52156],effect on FTY720-induced bradycardia,[1],partially inhibit
